Laboratory results taken from the NIST ThermoML archive (doi:10.1016/j.fluid.2017.03.021).

Experiments:
[1] = molar heat capacity at constant pressure; settings: 101.33 kPa, Liquid, DSC
[2] = 101.33 kPa, Liquid; for speed of sound: Sing-around technique in a fixed-path interferometer; for mass density: Vibrating tube method; for viscosity: Falling or rolling sphere viscometry

CCCCn1cc[n+](C(CC)CC)c1.O=S(=O)([N-]S(=O)(=O)C(F)(F)F)C(F)(F)F
Settings | mass density, [2] [kg/m3] | molar heat capacity at constant pressure, [1] [J/K/mol] | speed of sound, [2] [m/s] | viscosity, [2] [mPa·s]
287.15 K | 1329.4 | – | 1238.8 | –
289.15 K | 1327.6 | – | 1233.8 | –
291.15 K | 1325.8 | – | 1228.9 | –
293.15 K | 1324 | – | 1224.1 | 159.5
294.15 K | – | 692.9 | – | 148.8
295.15 K | 1322.2 | 694.28 | 1219.3 | –
296.15 K | – | 695.14 | – | –
297.15 K | 1320.4 | 695.85 | 1214.5 | –
298.15 K | – | 696.61 | – | 118.2
299.15 K | 1318.6 | 697.52 | 1209.8 | –
300.15 K | – | 698.18 | – | –
301.15 K | 1316.8 | 698.85 | 1205.1 | –
302.15 K | – | 699.65 | – | –
303.15 K | 1315 | 700.37 | 1200.4 | 89.55
304.15 K | – | 701.22 | – | –
305.15 K | 1313.2 | 701.89 | 1195.8 | –
306.15 K | – | 702.56 | – | –
307.15 K | 1311.5 | 703.46 | 1191.2 | –
308.15 K | – | 704.22 | – | –
309.15 K | 1309.7 | 704.93 | 1186.7 | –
310.15 K | – | 705.84 | – | –
311.15 K | 1307.9 | 706.6 | 1182.1 | –
312.15 K | – | 707.21 | – | –
313.15 K | 1306.2 | 707.88 | 1177.6 | 54.83
314.15 K | – | 708.69 | – | –
315.15 K | 1304.4 | 709.45 | 1173.1 | –
316.15 K | – | 710.35 | – | –
317.15 K | 1302.6 | 711.16 | 1168.6 | –
318.15 K | – | 711.87 | – | –
319.15 K | 1300.9 | 712.97 | 1164.2 | –
320.15 K | – | 713.78 | – | –
321.15 K | 1299.1 | 714.58 | 1159.8 | –
322.15 K | – | 715.35 | – | –
323.15 K | 1297.4 | 716.3 | 1155.4 | 35.98
324.15 K | – | 717.1 | – | –
325.15 K | 1295.7 | 718.2 | 1151 | –
326.15 K | – | 718.67 | – | –
327.15 K | 1293.9 | 719.58 | 1146.6 | –
328.15 K | – | 720.2 | – | –
329.15 K | 1292.2 | 721.15 | 1142.3 | –
330.15 K | – | 721.72 | – | –
331.15 K | 1290.5 | 722.48 | 1137.9 | –
332.15 K | – | 723.24 | – | –
333.15 K | 1288.7 | 723.9 | 1133.6 | 25.07
334.15 K | – | 724.81 | – | –
335.15 K | 1287 | 725.43 | 1129.3 | –
336.15 K | – | 726.23 | – | –
337.15 K | 1285.3 | 726.9 | 1125 | –
338.15 K | – | 727.47 | – | –
339.15 K | 1283.6 | 728.09 | 1120.8 | –
340.15 K | – | 729.04 | – | –
341.15 K | 1281.8 | 729.42 | 1116.6 | –
342.15 K | – | 730.13 | – | –
343.15 K | 1280.1 | 731.13 | 1112.4 | 18.26
344.15 K | – | 731.94 | – | –
345.15 K | – | 732.61 | – | –
346.15 K | – | 733.37 | – | –
347.15 K | – | 733.89 | – | –
348.15 K | – | 734.79 | – | –
353.15 K | – | – | – | 13.84
